In US7238813B2, “Chemical compounds” (Smithkline Beecham Corporation, priority 2000, dated 2007):
Where a name gives a salt, the structure may show the parent alone.

How the values were obtained:
Recombinant GST-Tie2 = Recombinant GST-Tie2 (Homo sapiens, UniProt Q02763); test: Tie2 fluorescence polarization kinase activity assay (TIE2-FP); format: biochemical; conditions: starred examples, 200 μM ATP, read-out: TIE2-E (Tie-2 activities run utilizing Tie2-FP assay)
Description: Tie2 Fluorescence Polarization Kinase Activity Assay: (TIE2-FP)
Activation of Recombinant Tie2 Activation:
Recombinant GST-Tie2 was activated by incubating the enzyme in 20 mM Tris-HCl, pH 7.5, 12 mM MgCl2, 100 mM NaCl, 20 μM sodium vanidate, 1 mM DTT and 300 μM ATP at room temperature for 2 hours. The activation mixture was then passed through a NAP-25 desalting column (Pharmacia Biotech cat. no. 17-0852-02) to remove the free ATP. The activated enzyme was stored as aliquots at −80° C. in 20 mM Tris-HCl, pH 7.5 and 100 mM NaCl.
The final assay conditions were 50 mM HEPES, pH 7.5, 5% DMSO (when screening compounds), 200 μM ATP, 5 mM MgCl2, 1 mM DTT, 50 μM sodium vanidate, 1 nM activated enzyme, and 200 μM peptide. IC50's of compounds were measured under subsaturating ATP (200 μM) and varing concentrations of activated Tie2 and peptide substrate ([…]-OH; MW 1873 Da, TFA salt). Panvera Antiphosphotyrosine antibody (Cat#P2840) and PTK Green Tracer (Cat#P2842) were used to detect the phosphorylated peptide. Polarization was measured on a TECAN Polarion in 138-second cycles for 30 minutes at room temperature. IC50's were then determined from the % polarization using normal calculation methods.

GST-VEGFR2 = molecular target: T1, GST-VEGFR2 (Homo sapiens, UniProt P35968); test: VEGF-R2 enzyme assay (VEGF-E), LANCE method; format: biochemical; conditions: 75 μM ATP
T1 construct: GST-VEGFR2, baculovirus expressed recombinant constructs of the intracellular domains of human TIE2 tagged by GST; made in house
T1 sequence (P35968 786-1356 limits assumed): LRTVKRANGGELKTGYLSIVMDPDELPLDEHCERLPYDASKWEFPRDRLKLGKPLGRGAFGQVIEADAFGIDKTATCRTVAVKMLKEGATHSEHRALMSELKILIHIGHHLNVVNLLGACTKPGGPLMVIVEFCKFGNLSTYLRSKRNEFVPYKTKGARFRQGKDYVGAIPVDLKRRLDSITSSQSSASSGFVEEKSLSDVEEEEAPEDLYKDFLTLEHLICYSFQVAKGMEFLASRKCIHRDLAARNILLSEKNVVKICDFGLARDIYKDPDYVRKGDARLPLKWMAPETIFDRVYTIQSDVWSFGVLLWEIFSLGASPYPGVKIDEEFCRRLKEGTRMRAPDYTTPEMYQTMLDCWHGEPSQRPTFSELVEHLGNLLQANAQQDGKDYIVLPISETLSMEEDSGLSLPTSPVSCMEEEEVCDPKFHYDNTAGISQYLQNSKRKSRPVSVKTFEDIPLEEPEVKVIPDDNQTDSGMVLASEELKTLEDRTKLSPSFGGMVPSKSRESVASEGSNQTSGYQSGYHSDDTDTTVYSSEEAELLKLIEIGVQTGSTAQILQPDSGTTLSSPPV

[1] = test system: Human umbilical cord endothelial cells (HUVEC); test: VEGF-driven cellular proliferation assay: BrdU incorporation assay (VEGF-C); format: cell-based; design: key to VEGF-C: + = pIC50 of 5.0–6.0; ++ = pIC50 of 6.0–7.0; +++ = pIC50 of > 7.0; − = a negative or inconclusive result; conditions: for IC50: Homo sapiens
How it was run: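 HUVEC (≤6 passages) were plated at 5000 cells/well and exposed to compound 30 min in serum-free M199 containing 0.6% DMSO. Medium with 20 ng/ml VEGF was then added for 24 h, followed by a 24 h pulse with 10 μM BrdU and ELISA read at 450 nm. IC50 from nonlinear regression of percent inhibition was expressed as pIC50.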

[2] = molecular target: T2, GST-TIE2 (intracellular domains of human TIE2) (Homo sapiens, UniProt Q02763); test: TIE-2 enzyme assay (TIE2-E), LANCE method; format: biochemical; conditions: 80 uM ATP
T2 construct: made in house
T2 sequence (Q02763 762-1104): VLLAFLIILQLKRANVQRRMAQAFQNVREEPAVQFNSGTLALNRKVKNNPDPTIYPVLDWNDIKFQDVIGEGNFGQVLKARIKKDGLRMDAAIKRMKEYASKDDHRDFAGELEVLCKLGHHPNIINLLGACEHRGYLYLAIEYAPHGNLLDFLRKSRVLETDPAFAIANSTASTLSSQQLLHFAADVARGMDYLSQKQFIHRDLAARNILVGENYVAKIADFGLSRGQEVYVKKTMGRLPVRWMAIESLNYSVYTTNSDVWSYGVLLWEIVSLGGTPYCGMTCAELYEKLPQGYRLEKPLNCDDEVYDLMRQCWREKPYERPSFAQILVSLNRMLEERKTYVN
How it was run: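 Baculovirus GST-TIE2 (human intracellular domain, aa 762–1104) preactivated 30 min at RT with 2 mM ATP, then reacted 30 min at RT with 1 μM D1-15 peptide, 80 uM ATP, 10 mM MgCl2, pH 7.4, 2.4% DMSO. EDTA-stopped; LANCE Eu-anti-pTyr/streptavidin-APC read-out. IC50 by nonlinear regression, reported as pIC50.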

[3] = molecular target: T3, TIE2 intracellular domain/c-fms extracellular domain (TIE2/c-fms) chimeric protein expressing mouse 3T3 cells (Homo sapiens, UniProt Q02763); test: TIE-2 autophosphorylation assay (TIE2-C), ELISA; format: cell-based; conditions: TIE2/c-fms 3T3 cells, MCSF activation
T3 construct: a TIE2 intracellular domain/c-fms extracellular domain (TIE2/c-fms) chimeric protein; expressed in transfected cells; host or cells: mouse 3T3 cells
T3 sequence (Q02763 770-1124 limits assumed, change not shown): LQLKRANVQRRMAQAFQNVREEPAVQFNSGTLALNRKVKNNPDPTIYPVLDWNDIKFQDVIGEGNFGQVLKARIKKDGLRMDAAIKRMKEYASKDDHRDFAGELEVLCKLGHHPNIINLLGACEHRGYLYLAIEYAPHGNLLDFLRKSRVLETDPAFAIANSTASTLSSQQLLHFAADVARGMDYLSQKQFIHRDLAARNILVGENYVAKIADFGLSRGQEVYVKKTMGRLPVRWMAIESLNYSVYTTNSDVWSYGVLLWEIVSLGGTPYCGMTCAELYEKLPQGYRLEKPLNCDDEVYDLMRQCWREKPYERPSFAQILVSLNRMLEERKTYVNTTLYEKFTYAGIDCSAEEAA
How it was run: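 Mouse 3T3 cells expressing TIE2 intracellular/c-fms extracellular chimera treated with compound for 1 hr in serum-free DMEM (0.1% DMSO), then stimulated with MCSF. Lysates captured on anti-c-fms plates overnight at 4 °C; phosphotyrosine detected by biotin-PT66/HRP-streptavidin, OD450. IC50 by nonlinear regression, reported as pIC50.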

Recombinant GST-Tie2, sequence (Q02763 23-1124): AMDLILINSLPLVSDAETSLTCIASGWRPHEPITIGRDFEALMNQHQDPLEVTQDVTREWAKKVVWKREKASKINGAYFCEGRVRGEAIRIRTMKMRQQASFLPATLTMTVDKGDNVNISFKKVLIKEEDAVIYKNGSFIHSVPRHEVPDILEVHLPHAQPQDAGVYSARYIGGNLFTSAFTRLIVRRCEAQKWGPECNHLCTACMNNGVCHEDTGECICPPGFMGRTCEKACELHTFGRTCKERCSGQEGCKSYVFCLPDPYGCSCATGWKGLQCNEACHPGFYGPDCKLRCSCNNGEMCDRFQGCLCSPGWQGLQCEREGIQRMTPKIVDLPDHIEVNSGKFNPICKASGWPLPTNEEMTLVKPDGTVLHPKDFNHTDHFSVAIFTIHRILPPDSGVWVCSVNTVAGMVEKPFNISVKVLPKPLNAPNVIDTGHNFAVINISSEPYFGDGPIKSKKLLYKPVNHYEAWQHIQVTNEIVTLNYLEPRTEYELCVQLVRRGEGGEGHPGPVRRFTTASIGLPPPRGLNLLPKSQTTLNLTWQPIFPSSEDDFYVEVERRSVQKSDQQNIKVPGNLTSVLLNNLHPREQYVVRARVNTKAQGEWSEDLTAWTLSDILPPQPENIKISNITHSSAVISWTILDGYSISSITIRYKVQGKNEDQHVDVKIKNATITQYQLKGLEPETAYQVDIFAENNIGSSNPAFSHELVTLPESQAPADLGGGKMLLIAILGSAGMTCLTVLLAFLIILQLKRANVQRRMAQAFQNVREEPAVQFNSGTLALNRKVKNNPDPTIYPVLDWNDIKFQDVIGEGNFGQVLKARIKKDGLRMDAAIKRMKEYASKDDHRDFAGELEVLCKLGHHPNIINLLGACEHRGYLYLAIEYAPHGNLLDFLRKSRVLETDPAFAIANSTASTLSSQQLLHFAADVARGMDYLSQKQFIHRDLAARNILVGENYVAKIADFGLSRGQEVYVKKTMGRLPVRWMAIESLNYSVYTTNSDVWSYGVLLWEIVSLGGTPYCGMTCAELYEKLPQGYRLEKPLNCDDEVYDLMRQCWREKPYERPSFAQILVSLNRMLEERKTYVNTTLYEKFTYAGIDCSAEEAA

Row | SMILES | IC50 (Recombinant GST-Tie2) [nM] | IC50 (GST-VEGFR2) [nM] | IC50 [2] [nM] | IC50 [3] [nM] | IC50 [1] [nM] | VEGF-C [1]
1 | CC(=O)Nc1nc2cc(Oc3ccc(NC(=O)Nc4nc(C(C)(C)C)cs4)cc3)ccc2[nH]1 [Example 146, N-(5-(4-((4-tert-Butylthiazol-2-yl)aminocarbonylamino)phenoxy)-1H-benzimidazol-2-yl)acetamide] | 100 to 1000 | < 100 |  |  |  | 
2 | O=C(Nc1ccc(Oc2ccc3nc(NC(=O)c4cccnc4)[nH]c3c2)cc1)Nc1cc(C(F)(F)F)ccc1F [Example 93, N-(5-(4-((2-Fluoro-5-(trifluoromethyl)phenyl)aminocarbonylamino)phenoxy)-1H-benzimidazol-2-yl)-3-pyridinecarboxamide] |  | < 100 | < 100 | < 100 | 1000 to 10000 | 
3 | COC(=O)Nc1nc2nc(Oc3ccc(NC(=O)Nc4cc(C(F)(F)F)ccc4F)cc3)ccc2[nH]1 [Example 69, dihydrochloride] |  | < 100 | < 100 | < 100 | 100 to 1000 | 
4 | CN(C)CCOC(=O)Nc1nc2cc(Oc3ccc(NC(=O)Nc4cc(C(F)(F)F)ccc4F)cc3)ccc2[nH]1 [Example 80, 2-(Dimethylamino)ethyl N-(5-(4-((2-fluoro-5-(trifluoromethyl)phenyl)aminocarbonylamino)phenoxy)-1H-benzimidazol-2-yl)carbamate] |  | < 100 | < 100 | < 100 | < 100 | 
5 | COC(=O)Nc1nc2ccc(Sc3ccc(NC(=O)Nc4cc(OC)cc(OC)c4)cc3)cc2[nH]1 [Example 5, Methyl N-(5-(4-((3,5-dimethoxyphenyl)aminocarbonylamino)phenylthio)-1H-benzimidazol-2-yl)carbamate] |  | 1000 to 10000 | 100 to 1000 | < 100 |  | −
6 | COC(=O)Nc1nc2cc(Oc3ccc(NC(=O)Nc4cc(C(F)(F)F)ccc4F)cn3)ccc2[nH]1 [Example 37, Methyl N-(5-(5-((2-fluoro-5-(trifluoromethyl)phenyl)aminocarbonylamino)-2-pyridyloxy)-1H-benzimidazol-2-yl)carbamate] |  | < 100 | < 100 | < 100 |  | −
7 | Cc1ccc(S(=O)(=O)n2c(N)nc3ccc(Oc4ccc(NC(=O)Nc5cc(C(F)(F)F)ccc5F)cc4)cc32)cc1 [Example 24, 6-(4-((2-Fluoro-5-(trifluoromethyl)phenyl)aminocarbonylamino)phenoxy)-1-(4-(methyl)phenylsulfonyl)-1H-benzimidazol-2-ylamine] |  | < 100 | < 100 | 100 to 1000 |  | −

The next lines start with results.

Row | IC50 (Recombinant GST-Tie2) [nM] | IC50 (GST-VEGFR2) [nM] | IC50 [2] [nM] | IC50 [3] [nM] | SMILES | IC50 [1] [nM] | VEGF-C [1]
8 | 1000 to 10000 | 100 to 1000 |  |  | COCCOCC(=O)Nc1nc2cc(Oc3ccc(NC(=O)Nc4nc(C)cs4)cc3)ccc2[nH]1 [Example 153, N-(5-(4-((4-Methylthiazol-2-yl)aminocarbonylamino)phenoxy)-1H-benzimidazol-2-yl)(2-(methoxy)ethoxy)acetamide] |  | 
9 | < 100 | < 100 |  |  | COCCOCC(=O)Nc1nc2cc(Oc3ccc(NC(=O)Nc4nnc(C(C)(C)C)s4)cc3)ccc2[nH]1 [Example 159, N-(5-(4-((5-tert-Butyl-1,3,4-thiadiazol-2-yl)aminocarbonylamino)phenoxy)-1H-benzimidazol-2-yl)(2-(methoxy)ethoxy)acetamide] |  | 
10 | 100 to 1000 | < 100 |  |  | CCc1nnc(NC(=O)Nc2ccc(Oc3ccc4[nH]c(NC(=O)COCCOC)nc4c3)cc2)s1 [Example 156, N-(5-(4-((5-Ethyl-1,3,4-thiadiazol-2-yl)aminocarbonylamino)phenoxy)-1H-benzimidazol-2-yl)(2-(methoxy)ethoxy)acetamide] |  | 
11 | 100 to 1000 | < 100 |  |  | COCCOCC(=O)Nc1nc2cc(Oc3ccc(NC(=O)Nc4nc(C(C)(C)C)cs4)cc3)ccc2[nH]1 [Example 158, N-(5-(4-((4-tert-Butylthiazol-2-yl)aminocarbonylamino)phenoxy)-1H-benzimidazol-2-yl)(2-(methoxy)ethoxy)acetamide] |  | 
12 | 1000 to 10000 | 100 to 1000 |  |  | COCCOCC(=O)Nc1nc2cc(Oc3ccc(NC(=O)Nc4nnc(C)s4)cc3)ccc2[nH]1 [Example 155, N-(5-(4-((5-Methyl-1,3,4-thiadiazol-2-yl)aminocarbonylamino)phenoxy)-1H-benzimidazol-2-yl)(2-(methoxy)ethoxy)acetamide] |  | 
13 | 1000 to 10000 | 100 to 1000 |  |  | COCCOCC(=O)Nc1nc2cc(Oc3ccc(NC(=O)Nc4nccs4)cc3)ccc2[nH]1 [Example 151, N-(5-(4-((Thiazol-2-yl)aminocarbonylamino)phenoxy)-1H-benzimidazol-2-yl)(2-(methoxy)ethoxy)acetamide] |  | 
14 | 1000 to 10000 | 1000 to 10000 |  |  | COCCOCC(=O)Nc1nc2cc(Oc3ccc(NC(=O)Nc4nncs4)cc3)ccc2[nH]1 [Example 152, N-(5-(4-((1,3,4-Thiadiazol-2-yl)aminocarbonylamino)phenoxy)-1H-benzimidazol-2-yl)(2-(methoxy)ethoxy)acetamide] |  | 
